≈ marks a conversion by molar mass, not a printed value.
System: Mycobacterium tuberculosis
Experiment: Antitubercular activity against Mycobacterium tuberculosis H37Rv
Format: functional

Row | Structure (SMILES) | MIC [µg/mL]
1 | CCCCC(CC)CNCCCNc1c(F)cc2c(=O)c(C(=O)O)cn(C3CC3)c2c1OC (centres undefined) | 2.5 (≈ 5.42 µM)
2 | CCCCCCNCCCNc1c(F)cc2c(=O)c(C(=O)O)cn(C3CC3)c2c1OC | 50 (≈ 115 µM)
3 | CCCCCCCCNCCCNc1c(F)cc2c(=O)c(C(=O)O)cn(C3CC3)c2c1OC | 1.25 (≈ 2.71 µM)
4 | CCCCCCCCCCNCCCNc1c(F)cc2c(=O)c(C(=O)O)cn(C3CC3)c2c1OC | 0.31 (≈ 0.633 µM)
5 | CCCCCCCCNCCNc1c(F)cc2c(=O)c(C(=O)O)cn(C3CC3)c2c1OC | 12.5 (≈ 27.9 µM)
6 | COc1c(N2CCNC(C)C2)c(F)cc2c(=O)c(C(=O)O)cn(C3CC3)c12 (centres undefined) [GATIFLOXACIN] | 0.1 (≈ 0.266 µM)
7 | CCCCCCCCCCCCNCCCNc1c(F)cc2c(=O)c(C(=O)O)cn(C3CC3)c2c1OC | 0.62 (≈ 1.2 µM)
8 | CCCCCCCCCCCCNCCNc1c(F)cc2c(=O)c(C(=O)O)cn(C3CC3)c2c1OC | 1.25 (≈ 2.48 µM)
9 | CCCCCCCCCCCCCCNCCCNc1c(F)cc2c(=O)c(C(=O)O)cn(C3CC3)c2c1OC | 0.62 (≈ 1.14 µM)
10 | CCCCC(CC)CNCCNc1c(F)cc2c(=O)c(C(=O)O)cn(C3CC3)c2c1OC (centres undefined) | 0.62 (≈ 1.39 µM)
11 | CCCCCCCCCCNCCNc1c(F)cc2c(=O)c(C(=O)O)cn(C3CC3)c2c1OC | 0.62 (≈ 1.3 µM)
12 | CO[C@H]1/C=C/O[C@@]2(C)Oc3c(C)c(O)c4c(O)c(c(/C=N/N5CCN(C)CC5)c(O)c4c3C2=O)NC(=O)/C(C)=C\C=C\[C@H](C)[C@H](O)[C@@H](C)[C@@H](O)[C@@H](C)[C@H](OC(C)=O)[C@@H]1C [RIFAMPIN] | 1 (≈ 1.22 µM)
13 | CCCCCCCCCCCCCCNCCNc1c(F)cc2c(=O)c(C(=O)O)cn(C3CC3)c2c1OC | 6.25 (≈ 11.8 µM)
14 | CCCCCCNCCNc1c(F)cc2c(=O)c(C(=O)O)cn(C3CC3)c2c1OC | 5 (≈ 11.9 µM)
